Legend:
GlyR = settings: full agonist, maximal current responses; cited from earlier work
α1-GFP GlyR = target: T1, α1-GFP GlyR (Homo sapiens, UniProt P23415); experiment: MST of α1-GFP GlyR SMA-copolymer nanodiscs (total solubilized membranes) from X. laevis oocytes; assay type: binding; settings: mean ± SEM, read-out: cEC50 (MST)
T1 construct: made in house; host or cells: Xenopus laevis oocytes injected with cRNA; total solubilized membranes in SMA nanodiscs
T1 sequence (P23415 29-457): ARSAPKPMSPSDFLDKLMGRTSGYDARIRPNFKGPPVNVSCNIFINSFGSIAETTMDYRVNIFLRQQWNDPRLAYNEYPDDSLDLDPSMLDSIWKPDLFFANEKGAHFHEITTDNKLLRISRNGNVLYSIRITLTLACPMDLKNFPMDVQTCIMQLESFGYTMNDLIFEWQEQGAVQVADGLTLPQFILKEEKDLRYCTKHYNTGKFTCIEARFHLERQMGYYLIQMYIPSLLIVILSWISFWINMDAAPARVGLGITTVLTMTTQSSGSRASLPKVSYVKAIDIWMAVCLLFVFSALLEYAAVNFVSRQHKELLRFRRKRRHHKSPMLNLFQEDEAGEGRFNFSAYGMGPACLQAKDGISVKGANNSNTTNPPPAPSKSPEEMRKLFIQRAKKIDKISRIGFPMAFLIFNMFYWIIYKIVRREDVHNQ
Experimental: cRNA was synthesized using the AmpliCap-Max T7 High Yield Message Maker Kit (Cellscript, Madison, WI, USA). Therefore GFP-GlyR α1 in pCDNA3.1(+) was linearized with NotI. Oozytes were surgically taken from female X. laevis after anesthesia with 0.1% Tricaine in water. For SMA-copolymer solubilization, 300–400 oocytes were injected with 50 ng in a volume of 50.6 nl of cRNA. After injection the oocytes were incubated in ND-96 solution (96 mM NaCl, 2 mM KCl, 1 mM CaCl2, 1 mM MgCl2, 5 mM HEPES, pH 7.4) at 18 °C for 1–2 days.

α1 GlyR = target: T2, α1 GlyR (Homo sapiens, UniProt P23415); experiment: Two-electrode voltage-clamp whole-cell current recordings in X. laevis oocytes expressing α1 GlyR; assay type: cell-based
T2 construct: GFP (N); expressed in transfected cells; host or cells: Xenopus laevis oocytes (cRNA injection)
T2 sequence (P23415 29-457): T1 sequence (P23415 29-457)

Row | Compound | opening times in single-channel recordings (GlyR) | EC50 (α1-GFP GlyR) | EC50 (α1 GlyR; α1 GlyR expressed in X. laevis oocytes, clamped at −70 mV, mean ± SEM, read-out: aEC50 (electrophysiology)) | maximal current compared to glycine (α1 GlyR; α1 GlyR in X. laevis oocytes, normalized to maximum glycine currents, n = 3)
1 | NCC(=O)O [glycine] | 95–98% | – | – | –
2 | NCCS(=O)(=O)O [taurine] | – | 474 ± 66.1 µM | 843 ± 16 µM | 61%
